Reference: patent US20090143279A1 (priority 2007, published 2009)
Read-outs that look alike come from different tables or passages of the source.

Legend:
[1] = system: cellular dehydrogenase activity; conditions: for MTT / MTT (composite Z-score): Conc 20 μM; for MTT (composite Z-score): normalized score vs mock-treated (DMSO) wells
reactive oxygen species = assay type: cell-based, mouse; conditions: for ROS / ROS (composite Z-score): Conc 20 μM; for ROS (composite Z-score): normalized score vs mock-treated (DMSO) wells
mtOXPHOS transcripts = assay type: cell-based, mouse; conditions: for mitoOX / mitoOX (composite Z-score): Conc 20 μM; for mitoOX (composite Z-score): normalized score vs mock-treated (DMSO) wells
nuOXPHOS transcripts = assay type: cell-based, mouse; conditions: for nucOX / nucOX (composite Z-score): Conc 20 μM; for nucOX (composite Z-score): normalized score vs mock-treated (DMSO) wells
C2C12 myotubes = conditions: for Viability / Viability (composite Z-score): Conc 20 μM; for Viability (composite Z-score): normalized score vs mock-treated (DMSO) wells
OXPHOS gene expression = assay type: cell-based, mouse; conditions: for GE-HTS / GE-HTS (composite Z-score): Conc 20 μM; for GE-HTS (composite Z-score): normalized score vs mock-treated (DMSO) wells
cytochrome c = assay type: cell-based, mouse; conditions: for cyt c / cyt c (composite Z-score): Conc 20 μM; for cyt c (composite Z-score): normalized score vs mock-treated (DMSO) wells
[2] = system: mitochondrial membrane potential; assay type: cell-based, mouse; conditions: for ΔΨm / ΔΨm (composite Z-score): Conc 20 μM; for ΔΨm (composite Z-score): normalized score vs mock-treated (DMSO) wells
[3] = composite Z-score vs mock-treated (DMSO) wells

SMILES	MTT [1, 3]	ROS (reactive oxygen species; [3])	mitoOX (mtOXPHOS transcripts; [3])	nucOX (nuOXPHOS transcripts; [3])	Viability (C2C12 myotubes; [3])	GE-HTS (OXPHOS gene expression; [3])	cyt c (cytochrome c; [3])	ΔΨm [2, 3]	further results
C=C1CCC2C(CC2(C)C)C(=C)CCC1=NO (stereo not shown) [5-hydroxyiminoisocaryophyllene]	1.325	0.922	0.421	−0.273	0.181	−0.023	0.117	0.413	
O=C(O)c1cc([N+](=O)[O-])ccc1NCCCc1ccccc1 [5-nitro-2-phenylpropylaminobenzoic acid]									MTT (composite Z-score vs DMSO) [1]: −0.786; ROS (composite Z-score vs DMSO) (reactive oxygen species): 0.872; mitoOX (composite Z-score vs DMSO) (mtOXPHOS transcripts): −0.075; nucOX (composite Z-score vs DMSO) (nuOXPHOS transcripts): 0.089; Viability (composite Z-score vs DMSO) (C2C12 myotubes): −0.939; GE-HTS (composite Z-score vs DMSO) (OXPHOS gene expression): 0.038; cyt c (composite Z-score vs DMSO) (cytochrome c): 0.412; ΔΨm (composite Z-score vs DMSO) [2]: −0.937
C[C@]12CC[C@H](O)C[C@@H]1CC[C@@H]1[C@@H]2CC[C@]2(C)[C@@H](O)CC[C@@H]12 [5alpha-androstan-3beta,17beta-diol]									MTT ([1]; composite Z-score vs DMSO): −0.454; ROS (reactive oxygen species; composite Z-score vs DMSO): 0.607; mitoOX (mtOXPHOS transcripts; composite Z-score vs DMSO): 0.270; nucOX (nuOXPHOS transcripts; composite Z-score vs DMSO): 0.059; Viability (C2C12 myotubes; composite Z-score vs DMSO): −0.204; GE-HTS (OXPHOS gene expression; composite Z-score vs DMSO): 0.123; cyt c (cytochrome c; composite Z-score vs DMSO): 0.280; ΔΨm ([2]; composite Z-score vs DMSO): −1.116
CC(C)CCC[C@@H](C)[C@H]1CC[C@H]2[C@@H]3CC(=O)[C@H]4C[C@@H](O)CC[C@]4(C)[C@H]3CC[C@]12C [5alpha-cholestan-3beta-ol-6-one]									MTT ([1]; composite Z-score vs DMSO): 0.811; ROS (reactive oxygen species; composite Z-score vs DMSO): 0.397; mitoOX (mtOXPHOS transcripts; composite Z-score vs DMSO): −0.862; nucOX (nuOXPHOS transcripts; composite Z-score vs DMSO): −0.603; Viability (C2C12 myotubes; composite Z-score vs DMSO): −0.430; GE-HTS (OXPHOS gene expression; composite Z-score vs DMSO): −0.731; cyt c (cytochrome c; composite Z-score vs DMSO): 1.006; ΔΨm ([2]; composite Z-score vs DMSO): 0.479
COc1cccc(-c2cc(=O)c3cc(OC)ccc3o2)c1 [6,3′-dimethoxyflavone]	−1.534	−0.882	−0.021	0.087	0.413	0.072	0.245	1.915	
C=C1C2CC[C@@]3(C)[C@H](c4ccoc4)OC(=O)C[C@]13O[C@H]1CC(=O)C(C)(C)[C@H](C(OC(C)=O)C(=O)OC)[C@@]21C (stereo partly shown) [6-acetoxyangolensic acid methyl ester]									MTT (composite Z-score) [1]: −0.663; ROS (composite Z-score) (reactive oxygen species): 1.137; mitoOX (composite Z-score) (mtOXPHOS transcripts): 1.272; nucOX (composite Z-score) (nuOXPHOS transcripts): 1.291; Viability (composite Z-score) (C2C12 myotubes): 0.671; GE-HTS (composite Z-score) (OXPHOS gene expression): 1.379; cyt c (composite Z-score) (cytochrome c): −0.105; ΔΨm (composite Z-score) [2]: −0.055
C=C1C2CC[C@@]3(C)[C@H](c4ccoc4)OC(=O)C[C@]13O[C@H]1CC(=O)C(C)(C)[C@H](C(O)C(=O)OC)[C@@]21C (stereo partly shown) [6-hydroxyangolensic acid methyl ester]	−0.490	−0.249	−1.206	−1.425	1.224	−1.426	0.817	0.463	
CC(=O)OCC(=O)[C@@]1(O)CC[C@H]2[C@@H]3C[C@H](C)C4=CC(=O)C=C[C@]4(C)[C@H]3[C@@H](O)C[C@@]21C [6alpha-methylprednisolone acetate]									MTT (composite Z-score) [1]: −1.192; ROS (composite Z-score) (reactive oxygen species): 0.321; mitoOX (composite Z-score) (mtOXPHOS transcripts): 0.750; nucOX (composite Z-score) (nuOXPHOS transcripts): −0.518; Viability (composite Z-score) (C2C12 myotubes): −0.480; GE-HTS (composite Z-score) (OXPHOS gene expression): −0.130; cyt c (composite Z-score) (cytochrome c): −0.364; ΔΨm (composite Z-score) [2]: −0.462
CC1(C)C(=O)C=C[C@@]2(C)C1CC(=O)[C@@]1(C)C3=CC(=O)O[C@@H](c4ccoc4)[C@]3(C)CCC12 (stereo partly shown) [7-deacetoxy-7-oxodeoxygedunin]	−1.467	−0.489	−1.925	−1.586	0.224	−1.791	0.166	0.757	
CC(=O)O[C@H]1C[C@@H](OC(C)=O)C(C)(C)C2CC(=O)[C@]3(C)C(CC[C@@]4(C)[C@H](c5ccoc5)OC(=O)[C@H]5O[C@]543)[C@]21C (stereo partly shown) [7-deacetoxy-7-oxokhivorin]	−0.095	0.070	0.738	0.690	0.053	0.777	−0.184	0.258	
CC(=O)O[C@H]1C[C@@H](OC(C)=O)C(C)(C)C2C[C@@H](O)[C@]3(C)C(CC[C@@]4(C)[C@H](c5ccoc5)OC(=O)[C@H]5O[C@]543)[C@]21C (stereo partly shown) [7-deacetylkhivorin]	0.608	−0.618	0.188	0.543	0.893	0.477	0.079	−0.049	
